Here are results for 55 compounds from patent US20060111341A1, “Use of galanthamine and the derivatives thereof in the production of medicaments” (priority 2003, published 2006).

One assay has as its target Acetylcholinesterase (Homo sapiens, UniProt P22303). Nature of the assay: biochemical.
The next assay concerns the target Butyrylcholinesterase (Homo sapiens, UniProt P06276). Nature of the assay: biochemical.

Sequence of Acetylcholinesterase (P22303 32-614): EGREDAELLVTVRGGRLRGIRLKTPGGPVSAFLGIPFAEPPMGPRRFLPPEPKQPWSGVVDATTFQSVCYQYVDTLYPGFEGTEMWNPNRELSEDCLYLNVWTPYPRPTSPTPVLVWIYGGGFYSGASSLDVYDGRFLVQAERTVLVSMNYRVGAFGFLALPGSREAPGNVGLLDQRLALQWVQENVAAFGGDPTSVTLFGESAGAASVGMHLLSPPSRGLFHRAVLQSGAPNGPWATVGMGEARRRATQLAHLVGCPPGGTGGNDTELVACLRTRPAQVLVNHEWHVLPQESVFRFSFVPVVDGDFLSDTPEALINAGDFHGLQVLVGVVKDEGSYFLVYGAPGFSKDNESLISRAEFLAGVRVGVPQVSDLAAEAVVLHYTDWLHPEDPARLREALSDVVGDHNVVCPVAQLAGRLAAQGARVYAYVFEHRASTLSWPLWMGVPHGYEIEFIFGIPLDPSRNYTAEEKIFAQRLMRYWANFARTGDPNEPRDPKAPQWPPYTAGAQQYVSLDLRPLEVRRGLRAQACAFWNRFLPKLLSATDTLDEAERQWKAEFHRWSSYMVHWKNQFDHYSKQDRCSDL
Sequence of Butyrylcholinesterase (P06276 29-602): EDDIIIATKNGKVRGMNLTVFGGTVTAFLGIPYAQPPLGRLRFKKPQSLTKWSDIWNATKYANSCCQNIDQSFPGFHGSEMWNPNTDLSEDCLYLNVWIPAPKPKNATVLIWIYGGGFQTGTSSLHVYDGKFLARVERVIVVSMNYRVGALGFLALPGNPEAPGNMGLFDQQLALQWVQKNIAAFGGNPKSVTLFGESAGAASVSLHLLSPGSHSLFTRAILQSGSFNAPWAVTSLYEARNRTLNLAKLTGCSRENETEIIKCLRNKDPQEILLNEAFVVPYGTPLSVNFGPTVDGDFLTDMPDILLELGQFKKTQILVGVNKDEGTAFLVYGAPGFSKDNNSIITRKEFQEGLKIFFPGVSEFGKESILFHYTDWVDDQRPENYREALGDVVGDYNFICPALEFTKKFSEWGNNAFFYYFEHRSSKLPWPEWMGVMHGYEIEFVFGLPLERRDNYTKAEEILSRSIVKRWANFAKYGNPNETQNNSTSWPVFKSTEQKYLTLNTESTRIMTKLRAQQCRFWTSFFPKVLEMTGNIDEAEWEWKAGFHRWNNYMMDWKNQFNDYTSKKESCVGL

One may read the IC50 as the concentration needed to halve the response being measured. A higher IC50 goes with lower potency. For the compound `COc1ccc2c3c1OC1C[C@@H](O)C=CC31CCN(C(=O)Nc1ccccc1)C2` (mixture of isomers) [Nr 76], the IC50 against Acetylcholinesterase is 70 µM; against Butyrylcholinesterase it was above 100 µM.
For `C=CC[N+]1(C)CCC23C=C[C@@H](O)CC2Oc2c(OC)cc(C)c(c23)C1` (mixture of isomers) [Nr 104] the same measures were above 100 µM and 52 µM.
With `CNC(=S)N1CC[C@@]23C=C[C@H](O)C[C@@H]2Oc2c(OC)ccc(c23)C1` [Nr 129], the IC50 was found to be 18.5 µM against Acetylcholinesterase and 63 µM at Butyrylcholinesterase.
As to `COc1ccc2c3c1OC1C[C@@H](O)C=CC31CCN(C(=O)N[C@H](C)c1ccccc1)C2` (mixture of isomers) [Nr 112], the values for the IC50 against Acetylcholinesterase and at Butyrylcholinesterase were 30 µM and above 100 µM, respectively.
`C=CCCC(=O)N1CC[C@@]23C=C[C@H](O)C[C@@H]2Oc2c(OC)ccc(c23)C1` [Nr 147]: the IC50 at Acetylcholinesterase worked out at 8.4 µM; against Butyrylcholinesterase it was 2.6 µM.
For `COc1cc(C)c2c3c1OC1C[C@@H](O)C=CC31CCN(C)C2` (mixture of isomers) [Nr 63] the same measures were above 100 µM and 17 µM.
Take `CNC(=S)N1CCC23C=C[C@H](O)CC2Oc2c(OC)cc(Br)c(c23)C1` (mixture of isomers) [Nr 71]: the IC50 against Acetylcholinesterase was 31 µM; on Butyrylcholinesterase, 20 µM.
`CN1CC[C@@]23C=C[C@H](O)C[C@@H]2Oc2c(Oc4ccccc4)ccc(c23)C1` [Nr 118]: the results for the IC50 against Acetylcholinesterase and on Butyrylcholinesterase were 21 µM and 3.4 µM, respectively.
Take `C#CC[N+]1(C)CCC23C=C[C@H](O)CC2Oc2c(OC)cc(C)c(c23)C1` (mixture of isomers) [Nr 68]: the IC50 against Acetylcholinesterase worked out at 78 µM; against Butyrylcholinesterase, 2.5 µM.
For `COc1ccc2c3c1OC1C[C@@H](O)C=CC31CCN(c1nccc(Cl)n1)C2` (mixture of isomers) [Nr 89] the same measures were 66 µM and above 100 µM.
For `CCCCCCN1CCC23C=C[C@H](O)CC2Oc2c(OC)cc(Br)c(c23)C1` (mixture of isomers) [Nr 15] the same measures were 40 µM and 0.45 µM.
For `COc1ccc2c3c1O[C@H]1C[C@@H](O)C=C[C@@]31CC[N+](C)(CC=C(C)C)C2` (some centres unmarked) [Nr 54] the same measures were 0.2 µM and 0.21 µM.
For `COc1cc(N(C)C)c2c3c1O[C@H]1C[C@@H](O)C=C[C@@]31CCN(C)C2` [Nr 56], the IC50 against Acetylcholinesterase was above 100 µM; against Butyrylcholinesterase, 0.47 µM.
For `C#CC[N+]1(C)CC[C@@]23C=C[C@H](O)C[C@@H]2Oc2c(OC)ccc(c23)C1` (some centres unmarked) [Nr 16] the same measures were 1.4 µM and 1.7 µM.
Regarding `COc1ccc2c3c1O[C@H]1C[C@@H](O)C=C[C@@]31CCN(C(N)=O)C2` [Nr 113], the IC50 was 44 µM against Acetylcholinesterase and above 100 µM at Butyrylcholinesterase.
For `COc1ccc2c3c1O[C@H]1C[C@@H](O)C=C[C@@]31CCN(C(=O)NC(C)(C)C)C2` [Nr 115] the same measures were 2.5 µM and 7 µM.
With `C=C(C)C[N+]1(C)CCC23C=C[C@H](O)CC2Oc2c(OC)cc(C)c(c23)C1` (mixture of isomers) [Nr 67], the figures for the IC50 at Acetylcholinesterase and against Butyrylcholinesterase were 70 µM and 2.4 µM, respectively.
On to `COc1cc(Br)c2c3c1OC1C[C@@H](O)C=CC31CCN(CC#N)C2` (mixture of isomers) [Nr 19], for which the IC50 at Acetylcholinesterase is above 100 µM; against Butyrylcholinesterase, 70 µM.
For `CCCN1CC[C@@]23C=C[C@H](O)C[C@@H]2Oc2c(OC)ccc(c23)C1` [Nr 155] the same measures were 0.3 µM and 1.5 µM.
Turning to `COc1ccc2c3c1OC1C[C@@H](O)C=CC31CCN(c1nc(OCCCN(C)C)nc(OCCCN(C)C)n1)C2` (mixture of isomers) [Nr 94], the IC50 against Acetylcholinesterase came to 70 µM; against Butyrylcholinesterase, 40 µM.
On the same counts, the results for `COc1ccc2c3c1OC1C[C@@H](O)C=CC31CCN(C(=O)Nc1ccc(Cl)cc1)C2` (mixture of isomers) [Nr 92] are 24 µM and above 100 µM.
On the same counts, the results for `COc1ccc2c3c1OC1C[C@@H](O)C=CC31CCN(CCC(=O)NC(C)C)C2` (mixture of isomers) [Nr 109] are 54.5 µM and 36 µM.
As for `C#CCN1CCC23C=C[C@H](O)CC2Oc2c(OC)cc(Br)c(c23)C1` (mixture of isomers) [Nr 23], the IC50 was determined as 63 µM on Acetylcholinesterase and 10 µM on Butyrylcholinesterase.
As to `C=C(C)C[N+]1(C)CCC23C=C[C@@H](O)CC2Oc2c(OC)cc(C)c(c23)C1` (mixture of isomers) [Nr 102], the IC50 on Acetylcholinesterase was above 100 µM; against Butyrylcholinesterase it was 95 µM.
In the case of `COc1cc([N+](=O)[O-])c2c3c1O[C@H]1C[C@@H](O)C=C[C@@]31CCN(C)C2` [Nr 45], the IC50 on Acetylcholinesterase was above 100 µM; on Butyrylcholinesterase, 25 µM.
`COc1cc(Br)c2c3c1OC1C[C@@H](O)C=CC31CCN(CC(N)=O)C2` (mixture of isomers) [Nr 27]: the IC50 is above 100 µM on Acetylcholinesterase and 15 µM at Butyrylcholinesterase.
On to `COc1cc(C)c2c3c1O[C@H]1C[C@H](O)C=C[C@@]31CCN(CCCN1CCCCC1)C2` [Nr 138], for which the results for the IC50 on Acetylcholinesterase and against Butyrylcholinesterase were above 100 µM and 70 µM, respectively.
On the same counts, the results for `COc1ccc2c3c1O[C@@H]1C[C@H](O)C=C[C@]31CCN(C(=O)NC(C)C)C2` [Nr 126] are 8 µM and 90 µM.
For `COc1ccc2c(c1)CC(CCCCN1CC[C@@]34C=C[C@H](O)C[C@@H]3Oc3c(OC)ccc(c34)C1)C2=O` (some centres unmarked) [Nr 157] the same measures were 0.022 µM and 0.8 µM.
`COc1cc(Br)c2c3c1OC1C[C@@H](O)C=CC31CCN(CCO)C2` (mixture of isomers) [Nr 33]: the IC50 is 34 µM on Acetylcholinesterase and 6.4 µM against Butyrylcholinesterase.
Take `COc1cc2c(cc1OC)C(=O)C(CCCCN1CC[C@@]34C=C[C@H](O)C[C@@H]3Oc3c(OC)ccc(c34)C1)C2` (some centres unmarked) [Nr 154]: the IC50 worked out at 0.02 µM against Acetylcholinesterase and 0.8 µM against Butyrylcholinesterase.
Regarding `CCOC(=O)C(=O)N1CCC23C=C[C@H](O)CC2Oc2c(OC)cc(Br)c(c23)C1` (mixture of isomers) [Nr 20], the IC50 on Acetylcholinesterase came out at 32 µM; against Butyrylcholinesterase it was 11 µM.
For `CCN(CC)c1nccc(N2CCC34C=C[C@H](O)CC3Oc3c(OC)ccc(c34)C2)n1` (mixture of isomers) [Nr 97] the same measures were 25 µM and above 100 µM.
For `COc1ccc2c3c1O[C@H]1C[C@@H](O)C=C[C@@]31CCN(C)C2C#N` (some centres unmarked) [Nr 133] the same measures were 0.8 µM and above 100 µM.
For `CC(C)NC(=O)N1CC[C@@]23C=C[C@H](O)C[C@@H]2Oc2c(O)ccc(c23)C1` [Nr 130] the same measures were 6.3 µM and 60 µM.
Regarding `COc1ccc2c3c1OC1C[C@@H](O)C=CC31CCN(c1ncccn1)C2` (mixture of isomers) [Nr 85], the results for the IC50 at Acetylcholinesterase and on Butyrylcholinesterase were 38 µM and 30 µM, respectively.
With `COc1ccc2c3c1O[C@H]1C[C@@H](O)C=C[C@@]31CCN(CC(=O)N1CC3CC1CN3c1ccccc1)C2` (some centres unmarked) [Nr 143], the results for the IC50 on Acetylcholinesterase and on Butyrylcholinesterase were 8.4 µM and 2.4 µM, respectively.
For `COc1ccc2c3c1O[C@H]1C[C@@H](O)C=C[C@@]31CCN(C(=O)NC(C)C)C2` [Nr 114] the same measures were 2.6 µM and 10 µM.
In the case of `COc1cc(Br)c2c3c1OC1C[C@@H](O)C=CC31CCN(Cc1ccccc1)C2` (mixture of isomers) [Nr 38], the results for the IC50 on Acetylcholinesterase and on Butyrylcholinesterase were above 100 µM and 0.24 µM, respectively.
Take `C=CCN1CCC23C=C[C@H](O)CC2Oc2c(OC)ccc(c23)C1` (mixture of isomers) [Nr 40]: the values for the IC50 against Acetylcholinesterase and at Butyrylcholinesterase were 3.3 µM and 3.1 µM, respectively.
For `COc1cc(C)c2c3c1OC1C[C@@H](O)C=CC31CC[N+](C)(C)C2` (mixture of isomers) [Nr 107] the same measures were above 100 µM and 14 µM.
On the same counts, the results for `COc1ccc2c3c1O[C@H]1C[C@@H](O)C=C[C@@]31CCN(C(=O)Nc1cccc3ccccc13)C2` [Nr 267] are 70 µM and above 100 µM.
Regarding `COc1ccc2c3c1O[C@H]1C[C@@H](O)C=C[C@@]31CCN(C)C2C` (some centres unmarked) [Nr 135], the values for the IC50 at Acetylcholinesterase and on Butyrylcholinesterase were 4.2 µM and 25 µM, respectively.
For `COc1cc(C)c2c3c1OC1C[C@H](O)C=CC31CC[N+](C)(Cc1ccc(C(F)(F)F)cc1)C2` (mixture of isomers) [Nr 105] the same measures were 60 µM and 5.4 µM.
In the case of `COc1ccc2c3c1O[C@H]1C[C@@H](O)C=C[C@@]31CCN(CC1CC1)C2` [Nr 131], the IC50 on Acetylcholinesterase turned out to be 0.7 µM; against Butyrylcholinesterase it was 1.2 µM.
For `COc1cc(C)c2c3c1OC1C[C@@H](O)C=CC31CC[N+](C)(Cc1ccccc1)C2` (mixture of isomers) [Nr 69], the IC50 against Acetylcholinesterase was found to be 47 µM; against Butyrylcholinesterase, 0.7 µM.
On the same counts, the results for `C#CC[N+]1(C)CCC23C=C[C@@H](O)CC2Oc2c(OC)cc(C)c(c23)C1` (mixture of isomers) [Nr 103] are 59 µM and 45 µM.
For `COc1ccc2c3c1O[C@H]1C[C@@H](O)C=C[C@@]31CCN(CCCN1CCCCC1)C2` [Nr 128] the same measures were 0.3 µM and 1.5 µM.
On the same counts, the results for `C=CCNC(=S)N1CCC23C=C[C@H](O)CC2Oc2c(OC)ccc(c23)C1` (mixture of isomers) [Nr 91] are 21 µM and above 100 µM.
Regarding `CNC(=S)N1CCC23C=C[C@H](O)CC2Oc2c(OC)ccc(c23)C1` (mixture of isomers) [Nr 73], the figures for the IC50 at Acetylcholinesterase and against Butyrylcholinesterase were 23 µM and 30 µM, respectively.
On the same counts, the results for `COc1ccc2c3c1OC1C[C@@H](O)C=CC31CCN(CCC(=O)NC(C)(C)C)C2` (mixture of isomers) [Nr 101] are 45 µM and 26 µM.
`COc1ccc2c3c1O[C@H]1C[C@@H](O)C=C[C@@]31CC[N+](C)=C2` [Nr 127]: the IC50 came out at 0.3 µM on Acetylcholinesterase and 1.5 µM against Butyrylcholinesterase.
On the same counts, the results for `C=CCN1CCC23C=C[C@H](O)CC2Oc2c(OC)cc(Br)c(c23)C1` (mixture of isomers) [Nr 35] are above 100 µM and 2.6 µM.
On the same counts, the results for `COc1cc(Br)c2c3c1O[C@@H]1C[C@H](O)C=C[C@]31CCN(C(=O)CCN1CCCC1)C2` [Nr 271] are above 100 µM and 66 µM.
Take `COc1ccc2c3c1O[C@H]1C[C@@H](O)C=C[C@@]31CC[N+](C)(Cc1ccc(Br)cc1)C2` (some centres unmarked) [Nr 58]: the IC50 against Acetylcholinesterase is 0.2 µM; against Butyrylcholinesterase it was 0.6 µM.
